From patent US12281070B2, “Water soluble antiviral and antimicrobial compound and process for preparation thereof” (priority 2020, dated 2025)

How the values were obtained:
[1] = system: Escherichia coli (ATCC 8739); experiment: Evaluation of antimicrobial activity, E. coli; assay type: cell-based; settings: 10 mg/10 ml
[2] = system: Bacillus subtilis (ATCC 6633); experiment: Evaluation of antimicrobial activity, B. subtilis; assay type: cell-based; settings: 10 mg/10 ml
[3] = Water solubility / dispersibility of the synthesized substance; assay type: physicochemical; settings: semi solid creamy substance as synthesized
[4] = system: SARS CoV-2 NIV2020-770 isolate; assay type: cell-based; settings: 72 hours
Oral toxicity LD50, rat = assay type: in vivo
Oral toxicity LD50, mice = assay type: in vivo
[5] = system: PI-3 virus (enveloped virus); assay type: cell-based, Bovine parainfluenza virus
avian influenza = system: avian influenza; design: species or system poultry birds; settings: in vivo
[6] = system: Staphylococcus aureus (ATCC 6538); experiment: Evaluation of antimicrobial activity, S. aureus; assay type: cell-based; settings: 10 mg/10 ml

CCCCCCCCCCCCCCCCC(=O)OC(O)CO (stereo not shown) [Formula II, 1,2-dihydroxyethyl heptadecanoate]
% reduction after 30 seconds ([1]; contact 30 seconds, inoculum 70000000 Cfu/ml): 31.43% | % reduction after 1 minute ([1]; contact 1 minute): 55.71% | % reduction after 5 minutes ([1]; contact 5 minutes): 60% | % reduction after 10 minutes ([1]; contact 10 minutes): 64.29% | % reduction after 20 minutes ([1]; contact 20 minutes): 99.9851% | % reduction after 30 seconds ([2]; contact 30 seconds, inoculum 76000000 Cfu/ml): 27.63% | % reduction after 1 minute ([2]; contact 1 minute): 44.74% | % reduction after 5 minutes ([2]; contact 5 minutes): 59.21% | % reduction after 10 minutes ([2]; contact 10 minutes): 65.79% | % reduction after 20 minutes ([2]; contact 20 minutes): 99.9789% | solubility in water [3]: water soluble and/or water dispersible | inhibition of the RdRp-2 gene [4]: ~40% | LD 50 (Oral toxicity LD50, rat): 4000 mg per kg wt | LD 50 (Oral toxicity LD50, mice): 4000 mg per kg wt | % Log reduction [5]: 99.25% | Log10 Reduction [5]: 2.12 Log10 | Virus Titer (Log10 TCID50/mL) [5]: 2.50 Log10 TCID50/mL | reduction in mortality of avian influenza infected birds (avian influenza): 92% | cytotoxicity (Vero CCL-81 cells): Dose dependent cytotoxicity | CC50 (Vero CCL-81 cells; 72 hours): 600 fold dilution | % reduction after 30 seconds ([6]; contact 30 seconds, inoculum 74000000 Cfu/ml): 31.08% | % reduction after 1 minute ([6]; contact 1 minute): 43.24% | % reduction after 5 minutes ([6]; contact 5 minutes): 54.05% | % reduction after 10 minutes ([6]; contact 10 minutes): 62.16% | % reduction after 20 minutes ([6]; contact 20 minutes): 99.9627%
